# Test results taken from ChEMBL document CHEMBL3286269, “Group A streptococcus inhibitors by high-throughput virtual screening” (2014).
# Tested on: Streptococcus sp. 'group A'
# Experiment: Antibacterial activity against group A streptococcus MGAS2221 after 12 hrs by microscopic count analysis
# Format: functional
# Details: MGAS2221, 12 h
row,SMILES,MIC [µM]
1,Oc1c(Cl)cc(Cl)cc1/C=N/CC1CCCO1 (configuration not stated),20
2,O=Cc1cc(Cl)cc(Cl)c1O,20
3,Oc1c(Cl)cc(Cl)cc1/C=N/CC1CCC(C/N=C/c2cc(Cl)cc(Cl)c2O)CC1 (configuration not stated),10
4,OCC/N=C/c1cc(Cl)cc(Cl)c1O,20
5,Cc1ccc([N+](=O)[O-])c(NC(=O)NC(=O)c2c(Cl)cccc2Cl)c1C,50

# Now from value to compound:
row,MIC [µM],SMILES
1,10,O=C1NN=CC1CCC/N=C/c1cc(Cl)cc(Cl)c1O (configuration not stated)
2,40,O=C1NN=CC1CCC/N=C/c1cc(Br)ccc1O (configuration not stated)
